Laboratory results reported in PubChem BioAssay (NCI).
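Cells were grown in 96-well plates and exposed to each compound for 48 hours at five concentrations; endpoints were interpolated linearly between bracketing concentrations, or set to the highest concentration if not reached. TGI is the concentration that stops growth completely.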

What was measured:
Test in all cases: inhibition of tumour cell growth, NCI panel, 48 h
[1] = system: 786-0 renal
[2] = system: A498 renal
[3] = system: A549 NSCLC
[4] = system: ACHN renal
[5] = system: BT-549 breast
[6] = system: CAKI-1 renal
[7] = system: CCRF-CEM leukemia
[8] = system: COLO 205 colon
[9] = system: DU-145 prostate
[10] = system: EKVX NSCLC
[11] = system: HCC-2998 colon
[12] = system: HCT-116 colon
[13] = system: HCT-15 colon
[14] = system: HL-60(TB) leukemia
[15] = system: HOP-62 NSCLC
[16] = system: HOP-92 NSCLC
[17] = system: HS 578T breast
[18] = system: HT29 colon
[19] = system: IGROV1 ovarian
[20] = system: K-562 leukemia
[21] = system: KM12 colon
[22] = system: LOX IMVI melanoma
[23] = system: M14 melanoma
[24] = system: MALME-3M melanoma
[25] = system: MCF7 breast
[26] = system: MDA-MB-231 breast
[27] = system: MDA-MB-435
[28] = system: MOLT-4 leukemia
[29] = system: NCI-H226 lung
[30] = system: NCI-H23 lung
[31] = system: NCI-H460 lung
[32] = system: NCI-H522 lung
[33] = system: NCI/ADR-RES ovarian
[34] = system: OVCAR-3 ovarian
[35] = system: OVCAR-4 ovarian
[36] = system: OVCAR-5 ovarian
[37] = system: OVCAR-8 ovarian
[38] = system: PC-3 prostate
[39] = system: RPMI-8226 leukemia
[40] = system: RXF 393 renal
[41] = system: SF-268 CNS
[42] = system: SF-295 CNS
[43] = system: SF-539 CNS
[44] = system: SK-MEL-2 melanoma
[45] = system: SK-MEL-28 melanoma
[46] = system: SK-MEL-5 melanoma
[47] = system: SK-OV-3 ovarian
[48] = system: SN12C renal
[49] = system: SNB-19 CNS
[50] = system: SNB-75 CNS
[51] = system: SR leukemia
[52] = system: SW-620 colon
[53] = system: T-47D breast
[54] = system: TK-10 renal
[55] = system: U251 CNS
[56] = system: UACC-257 melanoma
[57] = system: UACC-62 melanoma
[58] = system: UO-31 renal

Measured: TGI

Cn1ccnc1Sc1ccc(/C=N\NC(=O)c2cccc(F)c2)cc1[N+](=O)[O-]
63.5 µM: [37]
53.9 µM: [41]
63.7 µM: [16]
63.2 µM: [38]
72.1 µM: [32]
66.4 µM: [43]
> 100 µM: [1] | [3] | [4] | [5] | [6] | [7] | [8] | [9] | [10] | [11] | [12] | [13] | [14] | [15] | [18] | [20] | [21] | [22] | [23] | [24] | [26] | [27] | [28] | [29] | [30] | [31] | [33] | [34] | [35] | [36] | [39] | [42] | [44] | [45] | [46] | [48] | [51] | [52] | [53] | [54] | [56] | [57] | [58]
70.6 µM: [17]
53 µM: [19]
65.7 µM: [2]
77.1 µM: [49]
89.8 µM: [47]
94.3 µM: [40]
91.5 µM: [25]
59.5 µM: [50]
43.7 µM: [55]
